We go through one substance from patent US20030176381A1, “Hyaluronic acid in the treatment of cancer” (priority 2002, published 2003).

Common to all, as to format: cell-based
Experiment [1] deals with UMUC-3 human bladder cancer cells. As to the kind of experiment: MTT cell proliferation, UMUC-3. To be noted: 48 h. As for the experimental part:
(§1) Cell proliferation was measured using dimethylthiazoldiphenyltetrazolium (MTT) reduction (Mosman et al. J. Immunol. Methods 65:55, 1983). Unless otherwise stated, 100 Al of 5 mg of MTT (Sigma-Aldrich, St. Louis, Mo., USA) dissolved in 1 ml of PBS was added into each well. After 4 h, medium was removed from each well, 1.0 ml of acid-isopropanol (0.04 N HCI in isopropanol) was added and reduced MTT was solubilized by mixing. Absorbency of the reaction product was measured at a wavelength of 570 nm using a multiplate spectrophotometer reader (Elx800 Model, Bio-TEK Instruments Inc., Winooski, Vt., USA).
(§2) Unless stated otherwise 1.0 x 10^5 cells/ml were seeded in 6-well flat-bottom tissue culture plates and were maintained for 48 h at 370 C in a 5% CO2 atmosphere.
(§3) PC-3, LNCAP and Du-145 human prostate cancer cells; MCF-7 human breast cancer cells; HT-1080 human fibrosarcoma cancer cells; B16F1 murine melanoma cells; and, UMUC-3, RT-4, HT-1376 and T-24 human bladder cancer cells were incubated with 0.8, 8.0 and 80 μg/ml of 5.0-7.5 x 10^5 Da HA (Table 2).
(§4) CD44 expression and the inhibition of proliferation by 5.0-7.5 x 10^5 Da HA were measured using Jurkat T cell leukemia cells; MCF-7 human breast cancer cells; RT-4, T-24, HT-1376 and UMUC-3 human bladder cancer cells; and, PC-3, Du-145 and LNCaP prostate cancer cells (Table 8)

Experiment [2] deals with LNCaP human prostate cancer cells. The experiment can be described thus: MTT cell proliferation, LNCaP. The settings on record: 48 h. Here is the method:
as §1, §2, §3
PC-3. LNCaP and Du-145 human prostate cancer cells were incubated with 8.0 jg/ml of 5.0-7.5 x 105 Da HA or of <1.5 x 10^4 Da HA (Table 3).
as §4

Experiment [3] relates to T-24 human bladder cancer cells. The experiment can be described thus: MTT cell proliferation, T-24. As for the experimental part:
as §1, §2, §3
Unless stated otherwise 2.0 x 10^4 cells/ml were seeded in 24-well plates and were maintained for 48 h at 370 C in a 5% CO2 atmosphere. MTT was used at 50 μl per well.
T-24 human bladder cancer cells, PC-3 and Du-145 human prostate cancer cells, and MCF-7 human breast cancer cell were incubated with saline or with 80.0 jg/ml of 5.0-7.5 x 105 Da HA +1.0 μg/ml of M-DNA (Table 4).
HT-1376, RT-4 and T-24 human bladder cancer cells were incubated with 0.8 pg/ml of 5.0-7.5 x 10^5 Da HA +1.0 ug/ml of MCC (Table 5).
as §4

Experiment [4] concerns RT-4 human bladder cancer cells. The experiment can be described thus: MTT cell proliferation, RT-4. Here is the method:
Cell proliferation was measured using dimethylthiazoldiphenyltetrazolium (MTT) reduction (Mosman et al. J. Immunol. Methods 65:55, 1983). Unless otherwise stated, 100 Al of 5 mg of MTT (Sigma-Aldrich, St. Louis, Mo., USA) dissolved in 1 ml of PBS was added into each well. After 4 h, medium was removed from each well, 1.0 ml of acid-isopropanol (0.04 N HCI in isopropanol) was added and reduced MTT was solubilized by mixing. Absorbency of the reaction product was measured at a wavelength of 570 nm using a multiplate spectrophotometer reader (Elx800 Model, Bio-TEK Instruments Inc., Winooski, Vt., USA). […] PC-3, LNCAP and Du-145 human prostate cancer cells; MCF-7 human breast cancer cells; HT-1080 human fibrosarcoma cancer cells; B16F1 murine melanoma cells; and, UMUC-3, RT-4, HT-1376 and T-24 human bladder cancer cells were incubated with 0.8, 8.0 and 80 μg/ml of 5.0-7.5 x 10^5 Da HA (Table 2). […] MTT was used at 50 μl per well. HT-1376, RT-4 and T-24 human bladder cancer cells were incubated with 0.8 pg/ml of 5.0-7.5 x 10^5 Da HA +1.0 ug/ml of MCC (Table 5). […] MCF-7 human breast cancer cells; RT-4, T-24, HT-1376 and UMUC-3 human bladder cancer cells; and, PC-3, Du-145 and LNCaP prostate cancer cells (Table 8)

The test system of experiment [5] is HT-1080 human fibrosarcoma cancer cells. The experiment can be described thus: MTT cell proliferation, HT-1080. To be noted: 48 h. Here is the method: as §1, §2, §3
Where [6] appears, read: HA at 0.8 μg/ml alone (+ saline), 24-well, Example 6.

Turning to Hyaluronic acid [5.0-7.5 × 10^5 Da HA], the “% INHIBITION of cell proliferation” value in experiment [1] (HA 0.8 μg/ml) was 10%; in experiment [1] (HA 8.0 μg/ml), 10%; in experiment [1] (HA 80.0 μg/ml) it was 2%; in experiment [2] (HA 0.8 μg/ml) it was 7%; in experiment [2] (HA 8.0 μg/ml, listed as 0.5-7.5 × 10^5 Da HA) it was 13%; in experiment [3] (HA 0.8 μg/ml, 48 h), 10%. Moreover, the “% INHIBITION of cell proliferation” value is listed as 8% in experiment [3] (HA 8.0 μg/ml, 48 h); 0% in experiment [3] (HA 80.0 μg/ml alone (+ saline), 24-well, Example 6); 0% in experiment [3] (HA 80.0 μg/ml, 48 h); 8% in experiment [3] (setting [6]); 0% in experiment [4] (HA 0.008 μg/ml alone (+ saline)); 0% in experiment [4] (HA 0.08 μg/ml alone (+ saline)). Further, the “% INHIBITION of cell proliferation” value in experiment [4] (HA 0.8 μg/ml, 48 h) is listed as 12%; in experiment [4] (HA 8.0 μg/ml, 48 h) it was 13%; in experiment [4] (HA 80.0 μg/ml, 48 h) it was 5%; in experiment [4] (setting [6]), 13%; in experiment [5] (HA 0.8 μg/ml), 4%; in experiment [5] (HA 8.0 μg/ml), 4%. Also, the “% INHIBITION of cell proliferation” value in experiment [5] (HA 80.0 μg/ml) was determined as 36%.
